Values quoted from earlier work in patent publication US6921530B1, “Low dose IL-2 for potentiation of immunity” (Cornell Research Foundation, Inc., priority 1999, dated 2005).
Where “and” joins values, the source holds several entries; their conditions need not be identical. Equal values may be shown once.

Tested on: HCV
Settings: cited from earlier work

Interferon-α [IFN-α]
sustained response, % of patients (3×10^6 units s.c. three times a week over one year, monotherapy): 35% and 28-43% | initial delay before decline of plasma HCV viral load (daily IFN therapy): 9 h
